The test system of test [1] is HSV-1. Nature of the test: HSV-1 Antiviral Assay (Vero cells, cell viability). In kind it is cell-based. The note with it: Human alphaherpesvirus 1, 96 h; Vero cells, 80 TCID50 HSV-1, 4 days, cell viability; read-out: HSV-1 EC50. On the procedure: Vero cells were cultured in Dulbecco's Modified Eagle Medium (DMVEM) supplemented with […] and 100 units/mL penicillin and streptomycin. The cells were passaged 2-3 times per week to maintain sub-confluent densities.
Vero cells were seeded into 96-well plates at a density of 2.5×10^3 cells per well and allowed to attach overnight. Following attachment, the media was replaced with 50 μL of infection medium (DMVEM supplemented with 2% fetal bovine serum and 100 units/mL penicillin and streptomycin). A Tecan D300e digital dispenser was then used to add compounds to the culture using an 8-point 3-fold serial dilution format. The DMSO concentration was normalized to 0.5% for all treatments. Following compound addition, 50 μL of infection medium containing 80 TCID50 HSV-1 was added to the cells and incubated at 37° C. for 4 days. After the incubation, the plates were equilibrated to room temperature, the media was removed, and […] a 1:1 dilution of Cell titer glow and phosphate buffered saline was added to the cells. Following a 5-minute incubation, cell viability was quantified by measuring luminance using a Tecan Infinite M1000 Pro plate reader.

Test [2] relates to HSV-2 G strain. Nature of the test: HSV-2 Antiviral Assay (Vero cells, cell viability). The note with it: Human alphaherpesvirus 2, Vero, 120 h, Vero cells, 160 TCID50 HSV-2 G strain, 5 days, cell viability. In kind it is cell-based. Summed up: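 Antiviral readout is survival of infected Vero cells: after 5 days at 37 °C with 160 TCID50 HSV-2 G strain plus serially diluted compound (8 points, 3-fold, 0.5% DMSO), WST-8 was added for 3 h and absorbance measured at 460/620 nm. Cells seeded at 1.0×10^4 per well.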

The term EC50 denotes the concentration giving half of the maximal effect.

`Cc1nc(N2CCCN(c3ccc(-c4cccc(F)c4)cc3)C2=O)sc1S(N)(=O)=O` [Compound 13]: the EC50 in test [1] and in test [2] was < 100 nM in each case.

Consider `Cc1nc(N2CCCN(c3ccc(-c4cccc(C(F)F)c4)cc3)C2=O)sc1S(N)(=O)=O` [Compound 14], for which the EC50 in test [1] and in test [2] was < 100 nM in each case.

Take `Cc1nc(N2CCCN(c3cccc(-c4cc(F)ccc4F)c3)C2=O)sc1S(N)(=O)=O` [Compound 16]: the EC50 in test [1] and in test [2] was 100 to 1000 nM in each case.

In the case of `C#Cc1ccc(F)c(-c2ccc(N3CCCN(c4nc(C)c(S(N)(=O)=O)s4)C3=O)cc2)c1` [Compound 17, 2-(3-(5′-Ethynyl-2′-fluoro-[1,1′-biphenyl]-4-yl)-2-oxotetrahydropyrimidin-1(2H)-yl)-4-methylthiazole-5-sulfonamide], the EC50 in test [1] and in test [2] was < 100 nM in each case.

As to `C#Cc1ccc(F)cc1-c1ccc(N2CCCN(c3nc(C)c(S(N)(=O)=O)s3)C2=O)cc1` [Compound 18], the EC50 in test [1] and in test [2] was < 100 nM in each case.

On to `Cc1nc(N2CCCN(c3ccc(-c4cc(F)ccc4C4CC4)cc3)C2=O)sc1S(N)(=O)=O` [Compound 22], for which the EC50 in test [1] and in test [2] was < 100 nM throughout.

Turning to `Cc1nc(N2CCCN(c3ccc(-c4cc(F)ccc4C#N)cc3)C2=O)sc1S(N)(=O)=O` [Compound 24], the EC50 in test [1] and in test [2] was < 100 nM in each case.

As for `Cc1nc(N2CCCN(c3ccc(-c4cc(Br)ccc4F)cc3)C2=O)sc1S(N)(=O)=O` [Compound 25], the EC50 in test [1] and in test [2] was < 100 nM throughout.

Consider `COc1ccc(F)c(-c2ccc(N3CCCN(c4nc(C)c(S(N)(=O)=O)s4)C3=O)cc2)c1` [Compound 26], for which the EC50 in test [1] and in test [2] was < 100 nM each time.

In the case of `Cc1nc(N2CCCN(c3ccc(-c4ccc(C#CC(C)(C)O)cc4)cc3)C2=O)sc1S(N)(=O)=O` [Compound 28], the EC50 in test [1] and in test [2] was 1000 to 5000 nM throughout.

`Cc1nc(N2CCCN(c3ccc(-c4ncccc4F)cc3)C2=O)sc1S(N)(=O)=O` [Compound 35]: the EC50 in test [1] and in test [2] was < 100 nM in each case.

With `Cc1nc(N2CCCN(c3ccc(-c4cc(F)ccn4)cc3)C2=O)sc1S(N)(=O)=O` [Compound 36], the EC50 in test [1] and in test [2] was < 100 nM in each case.

For `Cc1nc(N2CCCN(c3ccc(-c4ccnn4C)cc3)C2=O)sc1S(N)(=O)=O` [Compound 40], the EC50 in test [1] and in test [2] was 1000 to 5000 nM throughout.

Regarding `Cc1nc(N2CCCN(c3ccc(-c4ncco4)cc3)C2=O)sc1S(N)(=O)=O` [Compound 41], the EC50 in test [1] and in test [2] was 100 to 1000 nM in each case.

In the case of `Cc1nc(N2CCCN(c3ccc(-c4nccs4)cc3)C2=O)sc1S(N)(=O)=O` [Compound 42, 4-Methyl-2-(2-oxo-3-(4-(thiazol-2-yl)phenyl)tetrahydropyrimidin-1(2H)-yl) thiazole-5-sulfonamide], the EC50 in test [1] and in test [2] was < 100 nM each time.

Consider `Cc1csc(-c2ccc(N3CCCN(c4nc(C)c(S(N)(=O)=O)s4)C3=O)cc2)n1` [Compound 43], for which the EC50 in test [1] and in test [2] was < 100 nM throughout.

On to `Cc1nc(N2CCCN(c3ccc(-c4ncc(C(F)(F)F)s4)cc3)C2=O)sc1S(N)(=O)=O` [Compound 45], for which the EC50 in test [1] and in test [2] was 1000 to 5000 nM in each case.

Consider `Cc1nc(N2CCCN(c3ccc(-c4ccc5c(cnn5C)c4)cc3)C2=O)sc1S(N)(=O)=O` [Compound 52], for which the EC50 in test [1] and in test [2] was 1000 to 5000 nM in each case.

For `Cc1nc(N2CCCN(c3ccc(-c4cccc5cn[nH]c45)cc3)C2=O)sc1S(N)(=O)=O` [Compound 54], the EC50 in test [1] and in test [2] was 100 to 1000 nM in each case.

Take `Cc1nc(N2CCCN(c3ccc(-c4cccc5c4cnn5C)cc3)C2=O)sc1S(N)(=O)=O` [Compound 55]: the EC50 in test [1] and in test [2] was < 100 nM throughout.

(Values after patent US20260103471A1, “CYCLIC UREA THIAZOLYL COMPOUNDS FOR TREATMENT OF HSV” (Assembly Biosciences, Inc., priority 2022, published 2026).)
